# Laboratory results published in patent US6348570B1, “Chromophore containing compounds and their use in determining interleukin-1β convertase activity” (Merck & Co., Inc., priority 1991, dated 2002).
# Starred links: 1 amine or outer side, 2 acyl side, 3 side chain; linkers in the order of their positions; H or OH if unused. Non-standard residues stand in square brackets, D forms with d. Residues, ends and D or L forms follow the SMILES beside them. No end group written: not given here. *: point of attachment. 3‑amino‑4‑oxobutanoic acid = aspartic acid with its alpha-carboxyl as an aldehyde, O=C[C@H](CC(=O)[*:3])N[*:1]; AMC = Cc1cc(=O)oc2cc(N*)ccc12
# B1: compound Z (i.e. N-(N-acetyl-tyrosinyl-valinyl-alaninyl)-3-amino-4-oxo butanoic acid) (peptide)
# peptide: Ac-YVA[3‑amino‑4‑oxobutanoic acid]
# Columns and labels:
# [1] = molecular target: T1, Interleukin-1β convertase (ICE), DEAE-purified THP-1 cell lysate (Homo sapiens, UniProt P29466); assay type: biochemical; set-up: Activity of DEAE-purified THP-1 cell lysate; endogenous in cells; host or cells: THP-1 cells; cytosolic extract fractionated on a DEAE-5PW HPLC column; details: pH 7.5
# T1 sequence (P29466 120-297 limits assumed): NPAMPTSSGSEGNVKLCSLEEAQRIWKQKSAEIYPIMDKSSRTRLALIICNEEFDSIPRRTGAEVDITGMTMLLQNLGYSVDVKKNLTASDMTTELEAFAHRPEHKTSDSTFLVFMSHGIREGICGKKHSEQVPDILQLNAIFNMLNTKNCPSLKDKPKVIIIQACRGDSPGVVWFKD
# T1 sequence (P29466 317-404 limits assumed): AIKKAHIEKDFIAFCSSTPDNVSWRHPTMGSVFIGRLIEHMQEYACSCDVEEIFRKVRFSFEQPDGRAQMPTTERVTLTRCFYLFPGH
# Protocol: [table] At 25° C., 5 μl of substrate 5 μl of enzyme and 5 μl of sample were added to 485 μl of Buffer as defined above. Liberation of AMC was monitored using a Gilford Fluoro IV Spectrofluorometer using an excitation wavelength of 380 nm and an emmission wavelength of 460 nm. 1 μM AMC=100% relative fluorescence.
# [2] = molecular target: T1, Interleukin-1β convertase (ICE), DEAE-purified THP-1 cell lysate; assay: Coupled fluorometric ICE assay with leucine aminopeptidase (LAPM); assay type: biochemical; set-up: Activity of DEAE-purified THP-1 cell lysate; endogenous in cells; host or cells: THP-1 cells; cytosolic extract fractionated on a DEAE-5PW HPLC column; details: 25° C.
# Protocol: Coupled Assay: Interleukin 1β activity of Activity of DEAE-purified THP-1 cell lysate.
# At 25° C., 5 μl of substrate 5 μl of LAPM, 5 μl of ICE were added to […] of buffer.
# Reaction is monitored continuously in a Gilford Fluoro-IV Spectrofluorometer. excitation wavelength=380 nm emission wavelength=460 nm 1 uM AMC=100% relative fluoroescence
# [3] = molecular target: T2, Interleukin-1β convertase (ICE) (UniProt P29466 120-297; P29466 317-404, limits assumed); assay: cell-based or functional assay
# T2 sequence (looked up) 1: T1 sequence (P29466 120-297 limits assumed)
# T2 sequence (looked up) 2: T1 sequence (P29466 317-404 limits assumed)
molecule,measurement,setting,value
"CC(=O)N[C@@H](Cc1ccc(O)cc1)C(=O)N[C@H](C(=O)N[C@@H](C)C(=O)NC(C=O)CC(=O)O)C(C)C (stereo partly drawn) [Compound Z, N-(N-acetyl-tyrosinyl-valinyl-alaninyl)-3-amino-4-oxo butanoic acid]",rate constant for inhibition,"[1]; 5 μl of 2 μM sample in 500 μl, 25° C.",0.25 min⁻¹
same,half-life for the slow onset of inhibition,[1],2.7 min
same,type of inhibition,"[1]; substrate Ac-Tyr-Val-Ala-Asp-AMC, 25° C.","slow, tight-binding inhibitor"
"CC(=O)N[C@@H](Cc1ccc(O)cc1)C(=O)N[C@H](C(=O)N[C@@H](C)C(=O)N[C@@H](CC(=O)O)C(=O)NCC(=O)Nc1ccc2c(C)cc(=O)oc2c1)C(C)C [Ac-Tyr-Val-Ala-Asp-Gly-AMC, N-(N-Acetyl-tyrosinyl-valinyl-alaninyl-aspartyl-glycinyl)-7-amino-4-methylcoumarin] (Ac-YVADG-{AMC})",velocity of the steady state reaction,"[2]; 5 μl substrate, 5 μl LAPM, 5 μl ICE, pH 7.5",0.05 uM AMC/min
same,rate constant that describes the approach to steady state (lag phase),[2]; determined by amount of coupling enzyme LAPM (5 μl of 12.5 units/ml),0.44 ± 0.01 min⁻¹
B1,half-life for the slow onset of inhibition,[3],2.7 min
